Results taken from the NIST ThermoML archive (doi:10.1021/acs.jced.8b01135).

Experiment: xn = mol fraction of the nth substance listed
Settings: 102 kPa, Liquid; for speed of sound: Frequency=3 MHz, Single path-length method; for mass density: Vibrating tube method; for viscosity: Concentric cylinders viscometry

CCCCCCCC1CCCCC1 [heptylcyclohexane] + CCCCCCCCCCCC
Settings	mass density [kg/m3]	speed of sound [m/s]	viscosity [mPa·s]
288.15 K, x1 = 0.1002	758.6	1324.4	–
288.15 K, x1 = 0.201	764.82	1331.8	–
288.15 K, x1 = 0.3	771.01	1339.3	–
288.15 K, x1 = 0.3998	777.16	1346.8	–
288.15 K, x1 = 0.5002	783.44	1354.4	–
288.15 K, x1 = 0.5999	789.63	1362	–
288.15 K, x1 = 0.6998	795.81	1369.8	–
288.15 K, x1 = 0.8001	802.09	1377.6	–
288.15 K, x1 = 0.8998	808.24	1385.6	–
288.15 K, x1 = 1	814.51	1393.6	–
293.15 K, x1 = 0.1002	754.98	1304.9	1.57
293.15 K, x1 = 0.201	761.22	1312.4	1.67
293.15 K, x1 = 0.3	767.42	1319.9	1.76
293.15 K, x1 = 0.3998	773.59	1327.3	1.87
293.15 K, x1 = 0.5002	779.88	1335.1	1.99
293.15 K, x1 = 0.5999	786.08	1342.8	2.12
293.15 K, x1 = 0.6998	792.27	1350.4	2.26
293.15 K, x1 = 0.8001	798.57	1358.3	2.42
293.15 K, x1 = 0.8998	804.73	1366.2	2.6
293.15 K, x1 = 1	811	1374.2	2.8
298.15 K, x1 = 0.1002	751.36	1285.5	–
298.15 K, x1 = 0.201	757.61	1293.1	–
298.15 K, x1 = 0.3	763.84	1300.8	–
298.15 K, x1 = 0.3998	770.01	1308	–
298.15 K, x1 = 0.5002	776.32	1316	–
298.15 K, x1 = 0.5999	782.53	1323.6	–
298.15 K, x1 = 0.6998	788.73	1331.1	–
298.15 K, x1 = 0.8001	795.04	1339.3	–
298.15 K, x1 = 0.8998	801.21	1346.9	–
298.15 K, x1 = 1	807.49	1355.1	–
303.15 K, x1 = 0.1002	747.74	1266.3	1.33
303.15 K, x1 = 0.201	754.01	1273.9	1.41
303.15 K, x1 = 0.3	760.25	1281.8	1.48
303.15 K, x1 = 0.3998	766.42	1288.8	1.57
303.15 K, x1 = 0.5002	772.75	1297	1.66
303.15 K, x1 = 0.5999	778.98	1304.7	1.74
303.15 K, x1 = 0.6998	785.18	1312.1	1.85
303.15 K, x1 = 0.8001	791.51	1320.3	1.97
303.15 K, x1 = 0.8998	797.69	1327.9	2.11
303.15 K, x1 = 1	803.98	1336.1	2.25
313.15 K, x1 = 0.1002	740.48	1228.4	1.13
313.15 K, x1 = 0.201	746.79	1236.2	1.19
313.15 K, x1 = 0.3	753.05	1244.2	1.25
313.15 K, x1 = 0.3998	759.25	1251.2	1.32
313.15 K, x1 = 0.5002	765.6	1259.6	1.39
313.15 K, x1 = 0.5999	771.86	1267.3	1.47
313.15 K, x1 = 0.6998	778.09	1274.6	1.54
313.15 K, x1 = 0.8001	784.43	1283	1.63
313.15 K, x1 = 0.8998	790.64	1290.5	1.73
313.15 K, x1 = 1	796.95	1298.8	1.85
323.15 K, x1 = 0.1002	733.2	1191.3	0.976
323.15 K, x1 = 0.201	739.54	1199.2	1.02
323.15 K, x1 = 0.3	745.82	1207.3	1.08
323.15 K, x1 = 0.3998	752.06	1214.3	1.13
323.15 K, x1 = 0.5002	758.43	1222.8	1.19
323.15 K, x1 = 0.5999	764.71	1230.6	1.25
323.15 K, x1 = 0.6998	770.98	1238	1.32
323.15 K, x1 = 0.8001	777.34	1246.3	1.38
323.15 K, x1 = 0.8998	783.57	1253.9	1.45
323.15 K, x1 = 1	789.91	1262.2	1.55
333.15 K, x1 = 0.1002	725.89	1155.3	0.851
333.15 K, x1 = 0.201	732.26	1163.2	0.891
333.15 K, x1 = 0.3	738.56	1171.2	0.933
333.15 K, x1 = 0.3998	744.84	1178.5	0.977
333.15 K, x1 = 0.5002	751.23	1186.8	1.03
333.15 K, x1 = 0.5999	757.54	1194.6	1.08
333.15 K, x1 = 0.6998	763.84	1202.4	1.14
333.15 K, x1 = 0.8001	770.22	1210.5	1.18
333.15 K, x1 = 0.8998	776.49	1218.5	1.23
333.15 K, x1 = 1	782.85	1226.7	1.31
